The data set relates to CCRIS mutagenicity, Ames/micronucleus/aberration tests. As to the kind of experiment: CCRIS mutagenicity studies.

Calls of active or inactive are those of the source. The rule behind the calls is not given here.

Turning to `CCNNCC`, the mutagenic call was “inactive; negative” (Test System: AMES SALMONELLA TYPHIMURIUM, Strain/Indicator: TA98, Metabolic Activation: NONE, Method: PREINCUBATION); “inactive; negative” (Test System: AMES SALMONELLA TYPHIMURIUM, Strain/Indicator: TA98, Metabolic Activation: RAT LIVER S-9, PHENOBARBITAL AND BETA-NAPHTHOFLAVONE, Method: PREINCUBATION); “inactive; negative” (Test System: AMES SALMONELLA TYPHIMURIUM, Strain/Indicator: TA100, Metabolic Activation: NONE, Method: PREINCUBATION); “active; positive” (Test System: AMES SALMONELLA TYPHIMURIUM, Strain/Indicator: TA100, Metabolic Activation: NONE, Method: PREINCUBATION (11 HR GROWTH PERIOD FOR BACTERIA)); “inactive; negative” (Test System: AMES SALMONELLA TYPHIMURIUM, Strain/Indicator: TA100, Metabolic Activation: RAT LIVER S-9, PHENOBARBITAL AND BETA-NAPHTHOFLAVONE, Method: PREINCUBATION); “inactive; negative” (Test System: AMES SALMONELLA TYPHIMURIUM, Strain/Indicator: TA100, Metabolic Activation: RAT, LIVER, S-9, PCB, Method: PREINCUBATION (11 HR GROWTH PERIOD FOR BACTERIA)). For the same molecule, the mutagenic call (Test System: AMES SALMONELLA TYPHIMURIUM, Strain/Indicator: TA102, Metabolic Activation: NONE, Method: PREINCUBATION) was “inactive; negative”; the mutagenic call (Test System: AMES SALMONELLA TYPHIMURIUM, Strain/Indicator: TA102, Metabolic Activation: NONE, Method: PREINCUBATION (5 OR 7 HR GROWTH PERIOD FOR BACTERIA)) was “active; positive”; the mutagenic call (Test System: AMES SALMONELLA TYPHIMURIUM, Strain/Indicator: TA102, Metabolic Activation: NONE, Method: PREINCUBATION (11 HR GROWTH PERIOD FOR BACTERIA)) was “inactive; negative”; the mutagenic call (Test System: AMES SALMONELLA TYPHIMURIUM, Strain/Indicator: TA102, Metabolic Activation: RAT LIVER S-9, PHENOBARBITAL AND BETA-NAPHTHOFLAVONE, Method: PREINCUBATION) was “inactive; negative”; the mutagenic call (Test System: AMES SALMONELLA TYPHIMURIUM, Strain/Indicator: TA102, Metabolic Activation: RAT, LIVER, S-9, PCB, Method: PREINCUBATION (5 OR 7 HR GROWTH PERIOD FOR BACTERIA)) was “inactive; negative”; the mutagenic call (Test System: AMES SALMONELLA TYPHIMURIUM, Strain/Indicator: TA104, Metabolic Activation: NONE, Method: PREINCUBATION) is “inactive; negative”. In addition, the mutagenic call is “inactive; negative” (Test System: AMES SALMONELLA TYPHIMURIUM, Strain/Indicator: TA104, Metabolic Activation: RAT LIVER S-9, PHENOBARBITAL AND BETA-NAPHTHOFLAVONE, Method: PREINCUBATION); “inactive; negative” (Test System: AMES SALMONELLA TYPHIMURIUM, Strain/Indicator: TA1535, Metabolic Activation: NONE, Method: PREINCUBATION); “inactive; negative” (Test System: AMES SALMONELLA TYPHIMURIUM, Strain/Indicator: TA1535, Metabolic Activation: RAT LIVER S-9, PHENOBARBITAL AND BETA-NAPHTHOFLAVONE, Method: PREINCUBATION); “inactive; negative” (Test System: AMES SALMONELLA TYPHIMURIUM, Strain/Indicator: TA1537, Metabolic Activation: NONE, Method: PREINCUBATION); “inactive; negative” (Test System: AMES SALMONELLA TYPHIMURIUM, Strain/Indicator: TA1537, Metabolic Activation: RAT LIVER S-9, PHENOBARBITAL AND BETA-NAPHTHOFLAVONE, Method: PREINCUBATION); “inactive; negative” (Test System: E.COLI, Strain/Indicator: WP2UVRA/PKM101, Metabolic Activation: NONE, Method: PREINCUBATION). The mutagenic call was “inactive; negative” (Test System: E.COLI, Strain/Indicator: WP2UVRA/PKM101, Metabolic Activation: RAT LIVER S-9, PHENOBARBITAL AND BETA-NAPHTHOFLAVONE, Method: PREINCUBATION); “inactive; negative” (Test System: E.COLI, Strain/Indicator: WP2UVRA, Metabolic Activation: NONE, Method: PREINCUBATION); “inactive; negative” (Test System: E.COLI, Strain/Indicator: WP2UVRA, Metabolic Activation: RAT LIVER S-9, PHENOBARBITAL AND BETA-NAPHTHOFLAVONE, Method: PREINCUBATION).

Take `CC(N)C(=O)O` (centres undefined): the mutagenic call (Test System: AMES SALMONELLA TYPHIMURIUM, Strain/Indicator: TA98, Metabolic Activation: RAT LIVER, S-9, CHLOROPHENE, Method: STANDARD PLATE (COMPOUND HEATED AT 250 DEGREES CELSIUS FOR 20 MIN)) is “inactive; negative”.

Regarding `CC/C=C\C/C=C\C/C=C\CCCCCCCC(=O)O`, the mutagenic call runs as follows: (Test System: AMES SALMONELLA TYPHIMURIUM, Strain/Indicator: TA98, Metabolic Activation: HAMSTER, LIVER, S-9, AROCLOR 1254, Method: STANDARD PLATE) “inactive; negative”; (Test System: AMES SALMONELLA TYPHIMURIUM, Strain/Indicator: TA98, Metabolic Activation: NONE, Method: STANDARD PLATE) “inactive; negative”; (Test System: AMES SALMONELLA TYPHIMURIUM, Strain/Indicator: TA98, Metabolic Activation: RAT, LIVER, S-9, AROCLOR 1254, Method: STANDARD PLATE) “inactive; negative”; (Test System: AMES SALMONELLA TYPHIMURIUM, Strain/Indicator: TA100, Metabolic Activation: HAMSTER, LIVER, S-9, AROCLOR 1254, Method: STANDARD PLATE) “inactive; negative”; (Test System: AMES SALMONELLA TYPHIMURIUM, Strain/Indicator: TA100, Metabolic Activation: NONE, Method: STANDARD PLATE) “inactive; negative”; (Test System: AMES SALMONELLA TYPHIMURIUM, Strain/Indicator: TA100, Metabolic Activation: RAT, LIVER, S-9, AROCLOR 1254, Method: STANDARD PLATE) “inactive; negative”. The mutagenic call is, setting by setting: (Test System: AMES SALMONELLA TYPHIMURIUM, Strain/Indicator: TA1535, Metabolic Activation: HAMSTER, LIVER, S-9, AROCLOR 1254, Method: STANDARD PLATE) “inactive; negative”; (Test System: AMES SALMONELLA TYPHIMURIUM, Strain/Indicator: TA1535, Metabolic Activation: NONE, Method: STANDARD PLATE) “inactive; negative”; (Test System: AMES SALMONELLA TYPHIMURIUM, Strain/Indicator: TA1535, Metabolic Activation: RAT, LIVER, S-9, AROCLOR 1254, Method: STANDARD PLATE) “inactive; negative”; (Test System: AMES SALMONELLA TYPHIMURIUM, Strain/Indicator: TA1537, Metabolic Activation: HAMSTER, LIVER, S-9, AROCLOR 1254, Method: STANDARD PLATE) “inactive; negative”; (Test System: AMES SALMONELLA TYPHIMURIUM, Strain/Indicator: TA1537, Metabolic Activation: NONE, Method: STANDARD PLATE) “inactive; negative”; (Test System: AMES SALMONELLA TYPHIMURIUM, Strain/Indicator: TA1537, Metabolic Activation: RAT, LIVER, S-9, AROCLOR 1254, Method: STANDARD PLATE) “inactive; negative”. Also, the mutagenic call (Test System: AMES SALMONELLA TYPHIMURIUM, Strain/Indicator: TA1538, Metabolic Activation: HAMSTER, LIVER, S-9, AROCLOR 1254, Method: STANDARD PLATE) was “inactive; negative”; the mutagenic call (Test System: AMES SALMONELLA TYPHIMURIUM, Strain/Indicator: TA1538, Metabolic Activation: NONE, Method: STANDARD PLATE) is “inactive; negative”; the mutagenic call (Test System: AMES SALMONELLA TYPHIMURIUM, Strain/Indicator: TA1538, Metabolic Activation: RAT, LIVER, S-9, AROCLOR 1254, Method: STANDARD PLATE) is “inactive; negative”; the mutagenic call (Test System: MOUSE LYMPHOMA, Strain/Indicator: L5178Y (TK+/TK-), Metabolic Activation: NONE, Method: SUSPENSION/PLATE) is “inactive; negative. reevaluation of results: inconclusive”; the mutagenic call (Test System: MOUSE LYMPHOMA, Strain/Indicator: L5178Y (TK+/TK-), Metabolic Activation: RAT, LIVER, S-9, AROCLOR 1254, Method: SUSPENSION/PLATE) was “inactive; negative. reevaluation of results: negative”.

Values taken from PubChem BioAssay AID1259407 (Chemical Carcinogenesis Research Information System (CCRIS), 2018).
